Measurements reported in patent US20240285571A1, “METHODS OF TREATING BONE INFECTIONS” (MICROBION CORPORATION, priority 2020, published 2024).
Like-named read-outs stand apart in the source and are kept apart here.

Legend:
Format in all cases: cell-based
[1] = tested on: relevant ATCC QC organisms; test: Broth microdilution MIC, QC (Example 6)
Procedure, shortened: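 QC strains were tested per CLSI broth microdilution in cation-adjusted Mueller Hinton broth, with Ca2+ supplemented for daptomycin, at about 5×10^5 CFU/mL. Incubation was at 35° C for 16–20 hr, or 24 hr for vancomycin against S. aureus. The MIC was the lowest concentration inhibiting visible growth.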

Acinetobacter baumannii = test: Broth microdilution MIC (Example 6); settings: Acinetobacter baumannii
Procedure, shortened: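 CLSI broth microdilution in cation-adjusted Mueller Hinton broth, test agents 0.06-64 μg/mL from DMSO stocks, inoculum approx. 5×10^5 CFU/mL. Incubation 35° C for 16–20 hr; MIC taken as lowest concentration inhibiting visible growth.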

Pseudomonas aeruginosa = test: Broth microdilution MIC (Example 6); settings: Pseudomonas aeruginosa
Protocol: (§1) Test Compounds: The test agents BisEDT (MB-1-B3; Lot No. ED268-1-11-01), MB-2B, and MB-6 were stored at room temperature, in the dark, until assayed.
(§2) For testing daptomycin, calcium was supplemented with […] Ca^2+, resulting in a final concentration of […] Ca^2+ (2, 3).
(§3) MIC Assay Procedure: MIC values were determined using a broth microdilution procedure described by CLSI (2, 3).
(§4) The Biomek 2000 was then used to make 2-fold serial dilutions in the mother plates from column 1 through column 11. The wells of column 12 contained no drug and served as the organism growth control wells for the assay.
(§5) The test panels were prepared on the Biomek FX instrument which transferred 2 μL of drug solution from each well of a mother plate to the corresponding well of each daughter plate in a single step.
(§6) A standardized inoculum of each test organism was prepared per CLSI methods to equal a 0.5 McFarland standard, followed by a dilution of 1:20. The plates were then inoculated with 10 μL of the diluted inoculum using the Biomek 2000 from low to high drug concentration resulting in a final concentration of approximately 5×10^5 CFU/mL.
(§7) Plates were stacked 3-4 high, covered with a lid on the top plate, placed into plastic bags, and incubated at 35° C. for 16 to 20 hr (vancomycin was read for S. aureus after 24 hr incubation time). The MIC was recorded as the lowest concentration of drug that inhibited visible growth of the organism.

Escherichia coli = test: Broth microdilution MIC (Example 6); settings: Escherichia coli
Protocol: as §1, §2, §3, §4, §5, §6, §7

Klebsiella pneumoniae = test: Broth microdilution MIC (Example 6); settings: Klebsiella pneumoniae
Protocol: as §1, §2, §3, §4, §5, §6, §7

`OCC(S)CS.[Bi]` (stereo not shown) [MB-2B, bismuth-2,3-dimercaptopropanol] gave an MIC ([1]; Escherichia coli, ATCC25922) of 2 µg/mL, an MIC ([1]; Escherichia coli, ATCC35218) of 2 µg/mL and an MIC ([1]; Klebsiella pneumoniae, ATCCBAA1705) of 4 µg/mL. It also gave an MIC ([1]; Pseudomonas aeruginosa, ATCC27853) of 2 µg/mL, an MIC ([1]; Staphylococcus aureus, ATCC29213) of 1 µg/mL and an MIC (Acinetobacter baumannii; A. baumannii isolate CDC 273, β-lactamase type ESBL/OXA) of 32 µg/mL. For the same compound, the MIC (Acinetobacter baumannii; A. baumannii isolate CDC 274, β-lactamase type ESBL/OXA) was 32 µg/mL, the MIC (Acinetobacter baumannii; A. baumannii isolate CDC 275, β-lactamase type ESBL/OXA) was 32 µg/mL and the MIC (Acinetobacter baumannii; A. baumannii isolate CDC 277, β-lactamase type ESBL/OXA) was greater than 16 µg/mL. The MIC (Acinetobacter baumannii; A. baumannii isolate CDC 284, β-lactamase type ESBL/OXA) was greater than 16 µg/mL, the MIC (Acinetobacter baumannii; A. baumannii isolate CDC 307, β-lactamase type OXA) was 32 µg/mL and the MIC (Acinetobacter baumannii; A. baumannii isolate CDC 308, β-lactamase type ESBL/OXA) was 32 µg/mL. For the same compound, the MIC (Acinetobacter baumannii; A. baumannii isolate CDC 311, β-lactamase type OXA) was 32 µg/mL, the MIC (Acinetobacter baumannii; A. baumannii isolate CDC 312, β-lactamase type OXA) was 32 µg/mL and the MIC (Acinetobacter baumannii; A. baumannii isolate CDC 313, β-lactamase type ESBL/OXA) was 32 µg/mL. The MIC (Acinetobacter baumannii; NCTC13304, A. baumannii isolate NCTC 13304, β-lactamase type OXA) was greater than 16 µg/mL, the MIC (Pseudomonas aeruginosa; P. aeruginosa isolate CDC 230, β-lactamase type VIM/OXA, read-out: MIC) was 4 µg/mL and the MIC (Pseudomonas aeruginosa; P. aeruginosa isolate CDC 231, β-lactamase type KPC/OXA) was 16 µg/mL. It also gave an MIC (Pseudomonas aeruginosa; P. aeruginosa isolate CDC 241, β-lactamase type IMP/OXA, read-out: MIC) of 32 µg/mL, an MIC (Pseudomonas aeruginosa; P. aeruginosa isolate CDC 246, β-lactamase type NDM/OXA) of 8 µg/mL and an MIC (Pseudomonas aeruginosa; P. aeruginosa isolate CDC 250, β-lactamase type NDM/OXA) of 8 µg/mL. The MIC (Pseudomonas aeruginosa; P. aeruginosa isolate CDC 356, β-lactamase type KPC) was 4 µg/mL, the MIC (Pseudomonas aeruginosa; P. aeruginosa isolate CDC 439, β-lactamase type IMP, read-out: MIC) was 4 µg/mL and the MIC (Pseudomonas aeruginosa; P. aeruginosa isolate CDC 444, β-lactamase type VIM, read-out: MIC) was 4 µg/mL. It also gave an MIC (Pseudomonas aeruginosa; P. aeruginosa isolate CDC 457, β-lactamase type VIM, read-out: MIC) of 32 µg/mL, an MIC (Pseudomonas aeruginosa; P. aeruginosa isolate CDC 516, β-lactamase type KPC/AmpC) of 4 µg/mL and an MIC (Pseudomonas aeruginosa; P. aeruginosa isolate CDC 518, β-lactamase type KPC/AmpC) of 4 µg/mL. The MIC (Escherichia coli; ATCC35218, E. coli ATCC 35218, ESBL, read-out: MIC) was 2 µg/mL, the MIC (Escherichia coli; ATCCBAA2471, E. coli ATCC BAA-2471, NDM) was 2 µg/mL and the MIC (Escherichia coli; E. coli CDC 114, ESBL/KPC) was 2 µg/mL. It also gave an MIC (Escherichia coli; E. coli CDC 118, ESBL/NDM) of 4 µg/mL, an MIC (Escherichia coli; E. coli CDC 435, NDM) of 2 µg/mL and an MIC (Escherichia coli; E. coli CDC 451, KPC) of 2 µg/mL. It also gave an MIC (Escherichia coli; E. coli CDC 503, ESBL/NDM) of 2 µg/mL, an MIC (Escherichia coli; E. coli MMX 5745, KPC) of 4 µg/mL and an MIC (Escherichia coli; E. coli MMX 5755, ESBL, read-out: MIC) of 4 µg/mL. The MIC (Escherichia coli; E. coli MMX 5756, ESBL, read-out: MIC) was 2 µg/mL, the MIC (Escherichia coli; E. coli MMX 5758, ESBL, read-out: MIC) was 4 µg/mL and the MIC (Klebsiella pneumoniae; ATCCBAA1705, K. pneumoniae ATCC BAA-1705, ESBL/KPC) was 4 µg/mL. For the same compound, the MIC (Klebsiella pneumoniae; K. pneumoniae CDC 112, KPC) was 4 µg/mL, the MIC (Klebsiella pneumoniae; K. pneumoniae CDC 113, ESBL/KPC) was 32 µg/mL and the MIC (Klebsiella pneumoniae; K. pneumoniae CDC 115, ESBL/KPC) was 16 µg/mL. It also gave an MIC (Klebsiella pneumoniae; K. pneumoniae CDC 120, ESBL/KPC) of 4 µg/mL, an MIC (Klebsiella pneumoniae; K. pneumoniae CDC 126, ESBL/KPC) of 32 µg/mL and an MIC (Klebsiella pneumoniae; K. pneumoniae CDC 129, ESBL/KPC) of 4 µg/mL. For the same compound, the MIC (Klebsiella pneumoniae; K. pneumoniae CDC 135, ESBL/VIM, read-out: MIC) was 8 µg/mL, the MIC (Klebsiella pneumoniae; K. pneumoniae CDC 138, ESBL/NDM) was 16 µg/mL and the MIC (Klebsiella pneumoniae; K. pneumoniae CDC 158, ESBL/NDM/OXA) was 4 µg/mL. The MIC (Klebsiella pneumoniae; K. pneumoniae MMX 9029, ESBL, read-out: MIC) was 2 µg/mL.
